Results taken from patent US20230181612A1, “AMINOGLYCOSIDE DERIVATIVES AND USES THEREOF IN TREATING GENETIC DISORDERS” (ELOXX PHARMACEUTICALS LTD., priority 2017, published 2023).
Entries after “also recorded” stand apart in the source; their conditions may differ.

How the values were obtained:
eukaryotic ribosome = assay: Eukaryotic in vitro translation inhibition (TNT T7 Quick Coupled Transcription/Translation System, luciferase); assay type: biochemical; settings: for IC50: eukaryotic in vitro translation, 30 °C, 60 minutes
Method: The Set1 and Set2 compounds as described in Example 1 hereinabove were further tested for their ability to inhibit eukaryotic translation, as follows.
Eukaryotic in vitro translation inhibition was quantified using a TNT® T7 Quick Coupled
Transcription/Translation System with a luciferase T7 control DNA plasmid (Promega), according to the manufacturer protocol. Translation reactions (25 μL) containing variable concentrations of the tested aminoglycoside were incubated at 30° C. for 60 minutes, cooled on ice for 5 minutes, diluted with the dilution reagent and transferred into 96-well plates. In both prokaryotic and eukaryotic systems the luminescence was measured immediately after the addition of the Luciferase Assay Reagent ([…]; Promega), and the light emission was recorded with a FLx800 Fluorescence Microplate Reader (Biotek). The half-maximal inhibition concentration (IC50) values were obtained from fitting concentration-response curves to the data of at least two independent experiments by using Grafit 5 software.

[1] = Toxicity assay in cochlear explants (organ of Corti); assay type: cell-based; settings: CBA/J, mouse, cochlear explants (organ of Corti), outer hair cells, concentration at 50% loss of hair cells; 72 hours incubation; read-out: Ototoxicity (Loss of outer hair cells), LC50^Coch
Method: (§1) The ototoxicity potential of Set1 and Set2 compounds was tested with cochlear explants as described, for example, in E. Shulman et al., J. Biol. Chem. 289(4), 2318-2330 (2014). The ototoxicity was measured as the value of AG concentration that is needed for 50% of hair loss from the outer hair cells of the cochlea, as follows.
(§2) The tested compounds were screened for toxicity to auditory hair cells in explants of the organ of Corti from CBA/J mice of postnatal day 2-3. The dissected tissue was placed on a collagen-coated incubation dish as a flat surface preparation in 1 ml of serum-free Basal Medium Eagle (Sigma Aldrich, St. Louis, Mo.) plus serum-free supplement (Invitrogen, Eugene, Oreg.), 1% bovine serum albumin, 2 mM glutamine, 5 mg glucose /ml and 10 units penicillin/ml. The explants were incubated for 5 hours (37° C., 5% CO2) and an additional 1 ml of culture medium was added to submerse the explants. After 48 hours of continued pre-incubation the culture medium was exchanged for new medium containing a specified concentration of the tested compound. Following another 72 hours of incubation, the explants were washed three times with PBS, fixed overnight in 4% (v/v) paraformaldehyde at 4° C., and then permeabilized for 30 minutes with 0.3% (v/v) Triton X-100 in PBS. The specimens were washed three times with PBS for 10 minutes at room temperature and incubated with rhodamine phalloidin (1:100; Life Technologies, Eugene, OR), either for 1 hour at room temperature or overnight at 4° C.
(§3) Following several rinses with PBS, the explants were mounted on microscope slides with Fluoro-Gel (Electron Microscopy Sciences, Hatfield, Pa.) and imaged on a Leica SP5 Confocal TCS Microscope (Leica, Wetzlar, Germany). Hair cells were identified by phalloidin-staining of their stereociliary bundles and circumferential F-actin rings. Their presence or absence was quantified using a 50x oil immersion objective on an epifluorescence Leitz Orthoplan microscope (Leica, Wetzlar, Germany), equipped with a calibrated scale (0.19 mm) superimposed on the field of view. All rows of hair cells were oriented longitudinally within each frame and counted from the apex of the cochlea to its base. Cell counts were entered in a computer program and compared to a normative database (KHRI Cytocochleogram, version 3.0.6, Kresge Hearing Research Institute, University of Michigan, Ann Arbor, Mich., USA) and are reported as percent hair cell loss averaged over the entire length of the explant.

outer hair cells = assay: as above; assay type: cell-based; settings: for ototoxicity potential, in words: LC50^Coch in the millimolar range; for morphology of hair cell epithelium: F-actin staining
Method: as §1, §2, §3

human fibroblast cells = settings: cited from earlier work
[2] = system: G542X nonsense mutation (CFTR, premature UGA G stop codon); assay: In vitro readthrough, dual luciferase reporter assay, G542X construct; assay type: biochemical; settings: cystic fibrosis, in words, versus parent compound
Method: (§4) The Set1 and Set2 compounds as described in Example 1 hereinabove were tested for their readthrough activity in vitro by using a dual luciferase reporter assay system, as follows.
(§5) DNA fragments derived from PCDH15, CFTR, and IDUA cDNAs, including the tested nonsense mutation or the corresponding WT codon, and four to six upstream and downstream flanking codons, were created by annealing the following pairs of complementary oligonucleotides:
(§6) Fragments were inserted in frame into the polylinker of the p2Luc plasmid between either BamHI and Sad (p.R3X and p.R245X) or Salland Sad (all the rest) restriction sites. For the in vitro readthrough assays, the obtained plasmids, with addition of the tested aminoglycosides were transcribed and translated using the TNT Reticulocyte Lysate Quick Coupled Transcription/Translation System. Luciferase activity was determined after 90 minutes of incubation at 30° C., using the Dual Luciferase Reporter Assay System (Promega™). Stop codon readthrough was calculated as described in Grentzmann et al. RNA 4, 479-486 (1998).
(§7) Reporters carrying R3X nonsense mutation (a premature UGA C stop codon) related to Usher syndrome and G542X (a premature UGA G stop codon) related to Cystic fibrosis were used, and the obtained data is presented in FIGS. 7A-D.

[3] = system: R3X nonsense mutation (PCDH15, premature UGA C stop codon); assay: In vitro readthrough, dual luciferase reporter assay, R3X construct; assay type: biochemical
Method: as §4, §5, §6, §7

[4] = system: CFTR S466X nonsense mutation; assay: Readthrough activity in cell-free dual luciferase assay, CFTR S466X; assay type: biochemical, rabbit
Excerpt: (§8) A dual luciferase plasmid carrying the Cystic fibrosis transmembrane conductance regulator (CFTR) mutation, S466X, or wild-type sequence, between Renilla and Firefly luciferase was transcribed and translated in vitro using rabbit reticulocytes (TNT mix) and then tested for functional activity of firefly and renilla luciferases. WT plasmids expressed both firefly and renilla luciferases while mutant plasmids expressed only the renilla luciferase due to the stop codon found in the inserted sequence. The readthrough assays were conducted for the tested compounds and controls by adding the compounds to the in vitro transcription/translation reaction mixture.
Read-through activity induced by NB74-MeS and NB124-MeS was calculated from the dual luciferase assay data using results from both the WT and mutant plasmids and the following equation: […]
(iii) Readthrough efficiency is presented as fold-increase in Firefly luciferase activity between NB74-MeS and NB124-MeS treated and non-treated mutant plasmid.
(iv) % readthrough of WT is calculated as the percentage of FF/Renilla of the mutant plasmid divided by the FF/Renilla of the WT plasmid.

ribosomes = assay: Translational inhibition (TI) in cell-free dual luciferase assay, Renilla of WT plasmid; assay type: biochemical, rabbit
Excerpt: as §8
(i) Translational Inhibition (TI; The extent of the translational inhibition of ribosomes by NB74-MeS and NB124-MeS was calculated using the reduction in the Renilla bioluminescence values of WT plasmid by nonlinear regression curve fit on a plot of Relative Light Units (RLU) versus the log NB74-MeS and NB124-MeS molar concentration (Find ECanything analysis, GraphPad PRISM, version 7).

With `CC(=O)N[C@@H]1CC(N)[C@@H](O[C@H]2OC([C@@H](C)O)[C@@H](O)C(O)C2N)C(O[C@@H]2O[C@H](CN)C(O)C2O)C1O` (stereo partly drawn) [NB74-Ac, 6′-(R)-Methyl-5-O-(5″-amino-5″-deoxy-β-D-ribofuranose)-2′,3-amino-1-N-acetamide paromamine] the IC50 (eukaryotic ribosome) was 92.3 ± 9.9 µM, the CC50 at 72 h [1] was 2400 µM and the “ototoxicity potential, in words” value (outer hair cells) was “incredibly low ototoxicity potential”. The CC50 (outer hair cells; concentration at 50% loss of hair cells, 72 hours incubation, read-out: Ototoxicity (Loss of outer hair cells), LC50^Coch) was 2040 µM and the “ototoxicity relative to parent compound” value (outer hair cells; from LC50^Coch values) was “decreased in three orders of magnitude”.

For `CNC1C(O)C(OC2C(N)CC(N)C(OC3OC(C(C)O)C(O)C(O)C3N)C2O)OCC1(C)O` (centres unmarked) [Compound G-418], the LD50 (human fibroblast cells) is listed as 0.04 mg/mL.

With `C[C@H](N)[C@H]1O[C@@H](O[C@@H]2C(O)[C@H](N)CC(N)[C@H]2O[C@H]2OC([C@@H](C)O)[C@@H](O)[C@H](O)C2N)C(O)[C@H]1O` (some centres unmarked) [NB124, reference compound] the CC50 at 72 h [1] was 11.1 µM, the “morphology of hair cell epithelium” value (outer hair cells; 15 μM, 72 hours) was “almost complete” and the “hair cell loss / damage” value (outer hair cells; 15 μM, 72 hours, basal part of the cochlea) was 80-90%.

Work on `C[C@@H](O)C1O[C@H](O[C@@H]2C(N)C[C@@H](N)C(O)[C@H]2O[C@@H]2O[C@H](CN)[C@H](O)C2O)C(N)[C@@H](O)[C@@H]1O` (some centres unmarked) [NB74, reference compound] yielded an IC50 (eukaryotic ribosome) of 14.3 µM and a CC50 at 72 h [1] of 112 µM.

In the case of `C[C@@H](O)C1O[C@H](O[C@@H]2C(N)C[C@@H](NS(=O)(=O)c3ccccc3)C(O)C2O[C@@H]2O[C@H](CN)C(O)C2O)C(N)C(O)[C@@H]1O` (stereo partly drawn) [NB74-PhS, 6′-(R)-Methyl-5-O-(5″-amino-5″-deoxy-II-D-ribofuranose)-2′,3-amino-1-N-phenylsulfonamide paromamine], the IC50 (eukaryotic ribosome) is reported as 160 ± 3.6 µM and the CC50 at 72 h [1] is reported as 176 µM.

For `C[C@H](N)[C@H]1O[C@@H](OC2C(O)[C@H](NS(C)(=O)=O)CC(N)[C@H]2O[C@H]2OC([C@@H](C)O)[C@@H](O)C(O)C2N)C(O)C1O` (some centres unmarked) [NB124-MeS], the “readthrough activity, G542X mutation” value [2] was “better activity”.

With `C[C@@H](O)C1O[C@H](O[C@@H]2C(N)C[C@@H](NC(=O)c3ccccc3)C(O)C2O[C@@H]2O[C@H](CN)C(O)C2O)C(N)C(O)[C@@H]1O` (stereo partly drawn) [NB74-Bz, 6′-(R)-Methyl-5-O-(5″-amino-5″-deoxy-β-D-ribofuranose)-2′,3-amino-1-N-benzamide paromamine] the IC50 (eukaryotic ribosome) was 755 µM and the “folds less specific to the eukaryotic ribosome than NB74” value (eukaryotic ribosome; from IC50 values) was 54 folds.

With `CC(=O)N[C@@H]1CC(N)[C@@H](O[C@H]2OC([C@@H](C)O)[C@@H](O)C(O)C2N)C(O[C@@H]2O[C@H]([C@H](C)N)C(O)C2O)C1O` (stereo partly drawn) [NB124-Ac, 6′-(R)-Methyl-5-O-(5-(R)-amino-5-deoxy-β-D-ribofuranose)-2′,3-amino-1-N-acetamide paromamine] the CC50 at 72 h [1] was 1600 µM, the “morphology of hair cell epithelium” value (outer hair cells; 150 μM, 72 hours) was “remained normal and indistinguishable from the control; also recorded: essentially normal morphology” and the “ototoxicity potential, in words” value (outer hair cells) was “incredibly low ototoxicity potential”.

In the case of `C[C@@H](O)C1O[C@H](O[C@@H]2C(N)C[C@@H](NS(C)(=O)=O)C(O)C2O[C@@H]2O[C@H](CN)C(O)C2O)C(N)C(O)[C@@H]1O` (stereo partly drawn) [NB74-MeS, 6′-(R)-Methyl-5-O-(5″-amino-5″-deoxy-11-D-ribofuranose)-2′,3-amino-1-N-methanesulfonamide paromamine], the “folds better readthrough activity in comparison to NB74” value [3] is reported as “about 1.5 folds”, the “readthrough activity, G542X mutation” value [2] is reported as “better activity” and the IC50 (eukaryotic ribosome) is reported as 8.35 µM. The “folds more specific to the eukaryotic ribosome than NB74” value (eukaryotic ribosome; from IC50 values) was 1.7 folds, the “Fold Read-through at TI80” value ([4]; S466X, relative to MUT control, 0-16 μM range) was 9.9 Fold and the “% Read-through at TI80” value ([4]; S466X, relative to WT) was 17%. For the same compound, the “suppression of cystic fibrosis S466X nonsense mutation, in words” value ([4]; cell-free assay, data not shown) was “dose-response suppression”, the TI80 (ribosomes) was 16 µM and the IC50 (ribosomes; read-out: TI50 (the source's name)) was over 16 µM. It also gave a CC50 at 72 h [1] of 61.8 µM.
